≈ marks a conversion by molar mass, not a printed value. Read-outs that look alike come from different tables or passages of the source.
Tests used:
[1] = tested on: T. b. brucei; parameters: method as in PMID 20439607; details: read-out: IC50 versus T. b. brucei; cited from earlier work
[2] = parameters: method as in PMID 25141257; details: cited from earlier work
[3] = Mouse pharmacokinetics (plasma, whole blood, brain); format: in vivo, male CD-1 mice; details: for bioavailability: from dose normalised AUClast values, read-out: F (oral bioavailability); for Vd: read-out: Vdss
Method: In order to determine the suitability of the more permeable hits for in vivo efficacy studies, we first measured their aqueous solubilities, and their tendencies to metabolise, following a 1 h incubation with CD-1 mouse liver S9 subcellular fractions.[14] […] This led us to probe their in vivo pharmacokinetic (PK) profiles in mice, examining concentration levels in plasma, whole blood and brain tissue following both intravenous and oral administration (Table 2; for further experimental details, see the Supporting Information). […]
Mouse Pharmacokinetics. The in-life portion of PK testing was carried out by ViviSource Laboratories, Inc., Mass achusetts, USA, and PK samples were anal ysed by Sc ynexis, Inc.
Test compounds (9, 12, 17, and 19) w er e each administered as single doses to groups of 10 male CD-1 mice by bolus intravenous injection or oral gavage. Intravenous dosing (at a nominal dose of 2 mg/kg) emplo yed a solution vehicle comprising either 20% EtOH, 20% propylene gl ycol, and 30% PEG -400 in normal saline (for powders 9, 17, and 19) or 0.5% (hydrox yprop yl)meth ylcellulose, 0.4% Tween 80, 0.5% benz yl alcohol, and 20% DMSO i n deionised water (for oil 12). […]
in 0.5% methylcellulose, 0.08% Tween 80 in water ( ex cept fo r oil 12, where the formulation additionally contained 20% DMSO). […]

[4] = in vitro; details: dog, MDCK-MDR1, Permeability Papp
[5] = tested on: T. b. brucei 427; assay: T. b. brucei 427 growth inhibition (Scynexis); format: cell-based, Trypanosoma brucei brucei
[6] = tested on: L929 mouse fibroblasts; assay: Cytotoxicity toward L929 mouse fibroblasts (Scynexis); format: cell-based
[7] = Mouse liver S9 stability; format: in vitro ADME; details: CD-1, mouse, mouse liver S9 subcellular fraction, half-life in mouse liver S9 fraction; read-out: Mouse S9 t1/2
[8] = Kinetic aqueous solubility in pH 7.4 PBS; format: physicochemical
Text: Table 1 Inhibitory potency, metabolic stability, aqueous solubility, and MDCK-MDR1 cell permeability for 15 screening hits against T. b. brucei. | column: Solubility ^c / (µg/mL)

[9] = late stage HAT patients; cited from earlier work
[10] = male, CD-1, mouse, brain, intravenous, corrected doses 0.5, 1.1, 2.9, 2.0 mg/kg for 9, 12, 17, 19
[11] = male, CD-1, mouse, brain, oral, corrected doses 62, 50, 78, 49 mg/kg for 9, 12, 17, 19
[12] = male, CD-1, mouse, plasma, intravenous, corrected doses 0.5, 1.1, 2.9, 2.0 mg/kg for 9, 12, 17, 19
[13] = male, CD-1, mouse, plasma, oral, corrected doses 62, 50, 78, 49 mg/kg for 9, 12, 17, 19
[14] = male, CD-1, mouse, whole blood, intravenous, corrected doses 0.5, 1.1, 2.9, 2.0 mg/kg for 9, 12, 17, 19
[15] = male, CD-1, mouse, whole blood, oral, corrected doses 62, 50, 78, 49 mg/kg for 9, 12, 17, 19

For `O=[N+]([O-])c1cn2c(n1)OC[C@@H](OCc1ccc(OC(F)(F)F)cc1)C2` [Compound 6, pretomanid], the IC50 [1] is given as 38 µM and the “oral half-life in mouse lung tissue” value [2] is given as 4.8 h.
For `O=[N+]([O-])c1cn2c(n1)OC[C@@H](NCc1ccc(OC(F)(F)F)cc1)C2` [Compound 17], the “time beyond which exposure above the MIC is inadequate” value ([3]; male, CD-1, mouse, in vivo, po) was roughly 2 h, the half-life ([3]; male, CD-1, mouse, po, 78 mg/kg, over plasma, whole blood, brain, read-out: oral half-life) was 1.2 to 1.5 h and the bioavailability ([3]; male, CD-1, mouse, po, brain) was 100%. The bioavailability ([3]; male, CD-1, mouse, po, plasma) was 100%, the bioavailability ([3]; male, CD-1, mouse, po, whole blood) was 100% and the AUC(0-t) [3, 10] was 962 ng·h/mL. It also gave a clearance [3, 10] of 48.3 mL/min/kg, a Vd [3, 10] of 2.3 L/kg and a half-life ([3]; male, CD-1, mouse, brain, intravenous, corrected doses 0.5, 1.1, 2.9, 2.0 mg/kg for 9, 12, 17, 19, read-out: t1/2 (converted)) of 0.26 h. It also gave an AUC(0-t) [3, 11] of 50900 ng·h/mL, a Cmax [3, 11] of 35000 ng/mL and a Tmax [3, 11] of 0.5 h. It also gave a half-life ([3]; male, CD-1, mouse, brain, oral, corrected doses 62, 50, 78, 49 mg/kg for 9, 12, 17, 19, read-out: t1/2 (converted)) of 1.3 h, an AUC(0-t) [3, 12] of 418 ng·h/mL and a clearance [3, 12] of 113 mL/min/kg. It also gave a Vd [3, 12] of 4.7 L/kg, a half-life ([3]; male, CD-1, mouse, plasma, intravenous, corrected doses 0.5, 1.1, 2.9, 2.0 mg/kg for 9, 12, 17, 19, read-out: t1/2 (converted)) of 0.48 h and an AUC(0-t) [3, 13] of 20500 ng·h/mL. It also gave a Cmax [3, 13] of 12000 ng/mL, a Tmax [3, 13] of 1 h and a half-life ([3]; male, CD-1, mouse, plasma, oral, corrected doses 62, 50, 78, 49 mg/kg for 9, 12, 17, 19, read-out: t1/2 (converted)) of 1.2 h. For the same molecule, the AUC(0-t) [3, 14] was 1100 ng·h/mL, the clearance [3, 14] was 40 mL/min/kg and the Vd [3, 14] was 8.1 L/kg. The half-life ([3]; male, CD-1, mouse, whole blood, intravenous, corrected doses 0.5, 1.1, 2.9, 2.0 mg/kg for 9, 12, 17, 19, read-out: t1/2 (converted)) was 9.3 h, the AUC(0-t) [3, 15] was 42200 ng·h/mL and the Cmax [3, 15] was 26000 ng/mL. The Tmax [3, 15] was 0.5 h, the half-life ([3]; male, CD-1, mouse, whole blood, oral, corrected doses 62, 50, 78, 49 mg/kg for 9, 12, 17, 19, read-out: t1/2 (converted)) was 1.5 h and the “concentration levels in brain tissue relative to plasma (fold higher)” value ([3]; mouse, in vivo) was 2- to 3 fold. For the same molecule, the Papp at 1 h, 3 µM [4] was 80.4 ×10⁻⁶ cm/s, the “Selectivity Index” value ([5]; L929 vs T. b. brucei) was greater than 13 and the IC50 ([5]; Trypanosoma brucei, growth inhibition of T. b. brucei 427, mean ± SD) was 0.78 ± 0.01 µg/mL (≈ 2.18 µM). For the same molecule, the IC50 [6] was greater than 10 µg/mL, the half-life [7] was greater than 5.83 h and the solubility [8] was greater than 72 µg/mL. The “oral half-life in mouse lung tissue” value [2] was 1.3 h.
For `Nc1nc(N)nc(Nc2ccc([As]3SCC(CO)S3)cc2)n1` (stereo not shown) [melarsoprol], the “death of patients caused by treatment” value [9] is listed as roughly 5%.

From publication PMC5840523, “Assessment of a pretomanid analogue library for African trypanosomiasis: Hit-to-lead studies on 6-substituted 2-nitro-6,7-dihydro-5H-imidazo[2,1-b][1,3]thiazine 8-oxides” (Bioorganic & Medicinal Chemistry Letters, 2018)
